According to patent US20150225762A1, “SAME-DAY BLOOD CULTURE WITH DIGITAL MICROSCOPY” (ACCELERATE DIAGNOSTICS, INC., priority 2012, published 2015):

Key:
Paer 27853 [1] = test: FISH detection of live and killed bacteria with or without protease digestion; format: cell-based, P. aeruginosa
Paer 27853 [2] = test: Plate count of live bacteria after killing treatment; format: cell-based, P. aeruginosa
Kpne 13882 [3] = test: FISH detection of live and killed bacteria with or without protease digestion; format: cell-based, K. pneumoniae
Kpne 13882 [4] = test: Plate count of live bacteria after killing treatment
Ecol 35218 [5] = test: as above; format: cell-based, E. coli
Saur 12600 [6] = test: FISH detection of live and killed bacteria with or without protease digestion; format: cell-based, S. aureus
Ecol 35218 [7] = test: as above; format: cell-based, E. coli
Saur 12600 [8] = test: Plate count of live bacteria after killing treatment; format: cell-based, S. aureus
E. coli = test: Protease-dependent bacterial growth inhibition in rapid blood culture (plating); format: cell-based; details: for Overall rate / Fold Growth: 6 hour run; for Fold Growth: over starting number
Procedure: Blood culture samples were treated with two different concentrations of protease to determine if protease used at a high concentration could produce inhibition of bacterial growth. Identification of a protease concentration dependent inhibitory effect on the growth rate of microbial cells is an important component of optimization of a rapid blood culture method. Growth of E. coli in simulated bacteremic blood cultures treated with a working protease concentration (0.2 mg/mL) and high protease concentration (20 mg/mL) was compared over a six (6) hour growth and digestion period.
A mock blood culture specimen was created by addition of 10 mL of blood to a BioMerieux BacT/Alert Standard Aerobic bottle. A 1.0 mL portion of this specimen was used for each condition. Each sample was treated with saponin to a final concentration of 4 mg/mL and SPS to a final concentration of 0.96 mg/mL. Samples were then spiked with E. coli bacteria to a final concentration of 1×10^2 cfu/mL. The samples were treated with a Pronase solution containing either 0.2 mg/mL or 20 mg/mL. Samples were incubated at 35° C. with agitation for 6 hours. A portion of each sample was removed for concentration determination at 2 hour time points during the incubation. The sampled bacteria were plated in 10-fold dilution series to determine the concentration of bacteria at each time point. Interval-by-interval growth rates, overall growth rate, and fold increase versus the starting concentration were determined using the calculated concentrations at each time point.

[9] = 1 hour, with protease (0.2 mg/mL Pronase)
[10] = 1 hour, with protease (0.2 mg/mL Pronase), cells live or pre-killed as labelled
[11] = 4 hour, with protease (0.2 mg/mL Pronase)
[12] = 4 hour, with protease (0.2 mg/mL Pronase), cells live or pre-killed as labelled
[13] = 0 hr, after gentamycin 100 micrograms per mL 1 hour or 80% ethanol
[14] = gentamycin 1 hour or 80% ethanol
[15] = High protease (20 mg/mL Pronase)
[16] = Low protease (0.2 mg/mL Pronase)

## CCO [Ethanol, ethanol]
Paer 27853 [1]; 1 hour, no protease
  FISH Conc: 3.0 × 10^5 cells/mL
  Positive Detection?: Yes (A detection threshold of 1×10^4 cells per mL was used as the threshold for a positive call in the FISH assay)
Paer 27853 [1]; [9]
  Positive Detection?: No (A detection threshold of 1×10^4 cells per mL was used as the threshold for a positive call in the FISH assay)
Paer 27853 [1]; [10]
  FISH Conc: 6.7 × 10^3 cells/mL
Paer 27853 [1]; 4 hour, no protease
  FISH Conc: 1.3 × 10^5 cells/mL
  Positive Detection?: Yes (A detection threshold of 1×10^4 cells per mL was used as the threshold for a positive call in the FISH assay)
Paer 27853 [1]; [11]
  Positive Detection?: No (A detection threshold of 1×10^4 cells per mL was used as the threshold for a positive call in the FISH assay)
Paer 27853 [1]; [12]
  FISH Conc: <1 × 10^3 cells/mL
Paer 27853 [2]; [13]
  Conc of live bacteria by plating: <10 cfu/mL
Paer 27853 [2]; [14]
  Killing by plating, in words: no viable cells
Kpne 13882 [3]; 1 hour, no protease
  FISH Conc: 4.9 × 10^5 cells/mL
  Positive Detection?: Yes (A detection threshold of 1×10^4 cells per mL was used as the threshold for a positive call in the FISH assay)
Kpne 13882 [3]; [9]
  Positive Detection?: Yes (A detection threshold of 1×10^4 cells per mL was used as the threshold for a positive call in the FISH assay)
Kpne 13882 [3]; [10]
  FISH Conc: 6.8 × 10^5 cells/mL
Kpne 13882 [3]; 4 hour, no protease
  FISH Conc: 4.1 × 10^5 cells/mL
  Positive Detection?: Yes (A detection threshold of 1×10^4 cells per mL was used as the threshold for a positive call in the FISH assay)
Kpne 13882 [3]; [11]
  Positive Detection?: Yes (A detection threshold of 1×10^4 cells per mL was used as the threshold for a positive call in the FISH assay)
Kpne 13882 [3]; [12]
  FISH Conc: 2.8 × 10^5 cells/mL
Kpne 13882 [4]; [13]
  Conc of live bacteria by plating: <10 cfu/mL
Kpne 13882 [4]; [14]
  Killing by plating, in words: no viable cells
Ecol 35218 [5]; [13]
  Conc of live bacteria by plating: <10 cfu/mL
Ecol 35218 [5]; [14]
  Killing by plating, in words: no viable cells
Saur 12600 [6]; 1 hour, no protease
  FISH Conc: 3.4 × 10^5 cells/mL
  Positive Detection?: Yes (A detection threshold of 1×10^4 cells per mL was used as the threshold for a positive call in the FISH assay)
Saur 12600 [6]; [9]
  Positive Detection?: Yes (A detection threshold of 1×10^4 cells per mL was used as the threshold for a positive call in the FISH assay)
Saur 12600 [6]; [10]
  FISH Conc: 2.5 × 10^5 cells/mL
Saur 12600 [6]; 4 hour, no protease
  FISH Conc: 1.9 × 10^5 cells/mL
  Positive Detection?: Yes (A detection threshold of 1×10^4 cells per mL was used as the threshold for a positive call in the FISH assay)
Saur 12600 [6]; [11]
  Positive Detection?: Yes (A detection threshold of 1×10^4 cells per mL was used as the threshold for a positive call in the FISH assay)
Saur 12600 [6]; [12]
  FISH Conc: 1.2 × 10^5 cells/mL
Ecol 35218 [7]; 1 hour, no protease
  FISH Conc: 4.3 × 10^4 cells/mL
  Positive Detection?: Yes (A detection threshold of 1×10^4 cells per mL was used as the threshold for a positive call in the FISH assay)
Ecol 35218 [7]; [9]
  Positive Detection?: No (A detection threshold of 1×10^4 cells per mL was used as the threshold for a positive call in the FISH assay)
Ecol 35218 [7]; [10]
  FISH Conc: 3.3 × 10^3 cells/mL
Ecol 35218 [7]; 4 hour, no protease
  FISH Conc: 3.7 × 10^4 cells/mL
  Positive Detection?: Yes (A detection threshold of 1×10^4 cells per mL was used as the threshold for a positive call in the FISH assay)
Ecol 35218 [7]; [11]
  Positive Detection?: No (A detection threshold of 1×10^4 cells per mL was used as the threshold for a positive call in the FISH assay)
Ecol 35218 [7]; [12]
  FISH Conc: 6.7 × 10^3 cells/mL
Saur 12600 [8]; [13]
  Conc of live bacteria by plating: <10 cfu/mL
Saur 12600 [8]; [14]
  Killing by plating, in words: no viable cells

## Pronase [Protease]
Paer 27853 [1]; [9]
  Positive Detection?: Yes (A detection threshold of 1×10^4 cells per mL was used as the threshold for a positive call in the FISH assay)
Paer 27853 [1]; [10]
  FISH Conc: 9.0 × 10^4 cells/mL
Paer 27853 [1]; [11]
  Positive Detection?: Yes (A detection threshold of 1×10^4 cells per mL was used as the threshold for a positive call in the FISH assay)
Paer 27853 [1]; [12]
  FISH Conc: 5.9 × 10^6 cells/mL
E. coli; 20 mg/mL versus 0.2 mg/mL, 6 hour incubation
  lower overall increase with the higher concentration of protease: approximately 8.5 fold
E. coli; [15]
  Calculated growth rate 0→2 Hours: 0.70
  Calculated growth rate 2→4 Hours: 2.74
  Calculated growth rate 4→6 Hours: 2.22
  Overall rate: 1.89
  Fold Growth: 2,600
E. coli; High protease (20 mg/mL Pronase), 2 hr
  Conc of bacteria: 2.7 × 10^2 cfu/mL
E. coli; High protease (20 mg/mL Pronase), 4 hr
  Conc of bacteria: 1.2 × 10^4 cfu/mL
E. coli; High protease (20 mg/mL Pronase), 6 hr
  Conc of bacteria: 2.6 × 10^5 cfu/mL
E. coli; [16]
  Calculated growth rate 0→2 Hours: 0.60
  Calculated growth rate 2→4 Hours: 2.96
  Calculated growth rate 4→6 Hours: 3.65
  Overall rate: 2.40
  Fold Growth: 22,000
E. coli; Low protease (0.2 mg/mL Pronase), 2 hr
  Conc of bacteria: 2.3 × 10^2 cfu/mL
E. coli; Low protease (0.2 mg/mL Pronase), 4 hr
  Conc of bacteria: 1.4 × 10^4 cfu/mL
E. coli; Low protease (0.2 mg/mL Pronase), 6 hr
  Conc of bacteria: 2.2 × 10^6 cfu/mL
Kpne 13882 [3]; [9]
  Positive Detection?: Yes (A detection threshold of 1×10^4 cells per mL was used as the threshold for a positive call in the FISH assay)
Kpne 13882 [3]; [10]
  FISH Conc: 7.7 × 10^4 cells/mL
Kpne 13882 [3]; [11]
  Positive Detection?: Yes (A detection threshold of 1×10^4 cells per mL was used as the threshold for a positive call in the FISH assay)
Kpne 13882 [3]; [12]
  FISH Conc: 4.3 × 10^6 cells/mL
Saur 12600 [6]; [9]
  Positive Detection?: Yes (A detection threshold of 1×10^4 cells per mL was used as the threshold for a positive call in the FISH assay)
Saur 12600 [6]; [10]
  FISH Conc: 1.6 × 10^6 cells/mL
Saur 12600 [6]; [11]
  Positive Detection?: Yes (A detection threshold of 1×10^4 cells per mL was used as the threshold for a positive call in the FISH assay)
Saur 12600 [6]; [12]
  FISH Conc: 4.2 × 10^7 cells/mL
Ecol 35218 [7]; [9]
  Positive Detection?: Yes (A detection threshold of 1×10^4 cells per mL was used as the threshold for a positive call in the FISH assay)
Ecol 35218 [7]; [10]
  FISH Conc: 2.3 × 10^6 cells/mL
Ecol 35218 [7]; [11]
  Positive Detection?: Yes (A detection threshold of 1×10^4 cells per mL was used as the threshold for a positive call in the FISH assay)
Ecol 35218 [7]; [12]
  FISH Conc: 1.8 × 10^7 cells/mL
